Assay results published in US5609897A, “Powdered beverage concentrate or additive fortified with calcium and vitamin D” (priority 1995, dated 1997).
Structures can show the parent of a compound that is named as a salt. Where two headings read alike, the source gives them in different places. One block for each molecule: values may come before it.

Key:
[1] = cited from earlier work
[2] = humans; cited from earlier work
[3] = rats, 3 weeks, right femur calcium, as compared to a control; cited from earlier work
[4] = without aluminum-containing drugs, normal kidneys; cited from earlier work
[5] = pH 3.5
Protocol: In this evaluation solubility was determined by a visual examination.

[6] = tested on: yeasts and molds; conditions: pH 4.5 to 3.0; cited from earlier work
[7] = Titratable acidity of calcium sources; format: physicochemical; conditions: from pH 3.5 to pH 8.3, 40 g sample
Description: Acidity is desired in the liquid nutritional product of the present invention for several reasons such as: to maintain the calcium salt solubility, to complement flavor, to control microbial growth, and to enhance the role of preservatives, specifically potassium benzoate or sodium benzoate. On the other hand, too much acidity can result in increased tartness and sourness that make the product undesirable from a sensory point of view. […] Titratable acidity is an indication of the total acidity of a beverage.

[8] = low birth weight infants; cited from earlier work
[9] = piglets; cited from earlier work
[10] = cited from earlier work; remark: listed apart in the source

Molecule: O=C(O)O [Calcium Carbonate, calcium carbonate]
adverse effects of large amounts [1]: constipation and abdominal distention
Calcium absorption [2]: 29.6%

Molecule: O=C(O)CC(O)(CC(=O)O)C(=O)O [Calcium Citrate, calcium citrate]
Relative calcium bioavailability [3]: 110%
Risk of aluminum toxicity [4]: does not pose a risk of aluminum toxicity

Solubility [5]: soluble
Molecule: O=C(O)[C@H](O)[C@@H](O)[C@H](O)[C@H](O)CO [D-Gluconic-Acid, D-gluconic acid (hemicalcium salt)]
Solubility over one month [5]: remained soluble at pH 3.5 for at least one month

Molecule: O=P([O-])([O-])[O-].O=P([O-])([O-])[O-].[Ca+2].[Ca+2].[Ca+2] [Tricalcium Phosphate, tricalcium phosphate]
Relative calcium bioavailability [3]: 110%

Molecule: O=C(O)c1ccccc1 [benzoic acid]
preservative effect on reducing pH from 4.5 to 3.0 [6]: increased by nearly three times

Molecule: Calcium Citrate Malate
Titratable acidity [7]: 53.2 mL of 0.1N NaOH
Calcium absorption [2]: 38.3%

Titratable acidity [7]: 43.5 mL of 0.1N NaOH
Molecule: Calcium Glycerophosphate [CaGP]
Efficacy as source of calcium in TPN [8]: as effective as calcium gluconate
Efficacy as source of calcium in TPN [9]: as effective as calcium gluconate

Molecule: vitamin D
calcium balance and fracture risk ([10]; 600-800 IU/day): improve calcium balance and reduce fracture risk
risks of excessive doses ([10]; excessive doses): hypercalciuria and hypercalcemia
